pEC50: −log10 of the molar value. Counter-ions that a name gives are not always drawn. Like-named read-outs stand apart in the source and are kept apart here.
System: NQO1 specific enzyme activity in BEAS-2B cells
Assay: BEAS-2B NQO1 MTT assay
Format: cell-based
Conditions: BEAS-2B cells, 48 hours with compound, MTT readout, read-out: EC50 of NQO1 specific activity induction
Outline: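 NQO1 specific activity, an NRF2 activation marker, read kinetically as absorbance change at 570 nm for 30 min after MTT cocktail addition to crude lysates of BEAS-2B cells exposed 48 h to compound. Three-parameter fit of Delta OD/min against log concentration gives EC50; lysate portion used for Cell Titer Glo.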

Cc1ccc(C(CC(=O)O)c2ccc3c(nnn3C)c2C)cc1CN1Cc2ccccc2O[C@@H](C)C1 (stereo partly drawn) [Example 98, 3-(1,4-Dimethyl-1H-benzo[d][1,2,3]triazol-5-yl)-3-(4-methyl-3-(((S)-2-methyl-2,3-dihydrobenzo[f][1,4]oxazepin-4(5H)-yl)methyl)phenyl)propanoic Acid, Formic Acid Salt]
pEC50 (Homo sapiens, BEAS-2B, 48 h): 6.00 to 7.00

Cc1ccc(C(c2ccc3c(nnn3C)c2C)C(C)(C)C(=O)O)cc1Cn1ccnc1CN1CCC(C)CC1 (stereo not shown) [Example 139, 3-(1,4-Dimethyl-1H-benzo[d][1,2,3]triazol-5-yl)-2,2-dimethyl-3-(4-methyl-3-((2-((4-methylpiperidin-1-yl)methyl)-1H-imidazol-1-yl)methyl)phenyl) propanoic acid]
pEC50 (Homo sapiens, BEAS-2B, 48 h): 5.00 to 6.00

CC[C@@H]1CN(Cc2cc(C(CC(=O)O)c3ccc4c(nnn4C)c3C)ccc2C)Cc2ncccc2O1 (stereo partly drawn) [Example 79, 3-(1,4-Dimethyl-1H-benzo[d][1,2,3]triazol-5-yl)-3-(3-(((R)-2-ethyl-2,3-dihydropyrido[2,3-f][1,4]oxazepin-4(5H)-yl)methyl)-4-methylphenyl)propanoic acid]
pEC50 (Homo sapiens, BEAS-2B, 48 h): 5.00 to 6.00

CC[C@@H]1CN(Cc2cc(C(c3ccc4c(nnn4C)c3C)C(C)(C)C(=O)O)ccc2C)Cc2cccc(F)c2O1 (stereo partly drawn) [Example 34, 3-(1,4-Dimethyl-1H-benzo[d][1,2,3]triazol-5-yl)-3-(3-(((R)-2-ethyl-9-fluoro-2,3-dihydrobenzo[f][1,4]oxaz-epin-4(5H)-yl)methyl)-4-methylphenyl)-2,2-dimethylpropanoic acid, formic acid salt]
pEC50 (Homo sapiens, BEAS-2B, 48 h): 6.00 to 7.00

COc1ccc2c(c1)OC(C)(C)CN(Cc1cc([C@H](CC(=O)O)c3ccc4c(nnn4C)c3C)ccc1C)C2 [Example 168, (S)-3-(1,4-Dimethyl-1H-benzo[d][1,2,3]triazol-5-yl)-3-(3-((8-methoxy-2,2-dimethyl-2,3-dihydrobenzo[f][1,4]oxazepin-4(5H)-yl)methyl)-4-methylphenyl)propanoic acid]
pEC50 (Homo sapiens, BEAS-2B, 48 h): 7.00 to 8.00

CC[C@@H]1CN(Cc2cc([C@@H](c3ccc4c(nnn4CC)c3F)[C@@H](C)C(=O)O)ccc2C)Cc2cccc(F)c2O1 [Example 192, (2R,3S)-3-(1-Ethyl-4-fluoro-1H-benzo[d][1,2,3]triazol-5-yl)-3-(3-(((R)-2-ethyl-9-fluoro-2,3-dihydrobenzo[f][1,4]oxazepin-4(5H)-yl)methyl)-4-methylphenyl)-2-methylpropanoic acid]
pEC50 (Homo sapiens, BEAS-2B, 48 h): 8.00 to 9.00

CCC1CCN(Cc2nccn2Cc2cc(C(CCc3cn(CC)nn3)C(C)(C)C(=O)O)ccc2C)CC1 (single isomer, unassigned) [Example 250, 5-(1-ethyl-1H-1,2,3-triazol-4-yl)-3-(3-((2-((4-ethylpiperidin-1-yl)methyl)-1H-imidazol-1-yl)methyl)-4-methylphenyl)-2,2-dimethylpentanoic acid]
pEC50: 7.00 to 8.00

Cc1ccc2c(c1)OC(C)(C)CN(Cc1cc([C@@H](CC(=O)O)c3ccc4c(nnn4C)c3C)ccc1C)C2 [Example 179, (R)-3-(1,4-Dimethyl-1H-benzo[d][1,2,3]triazol-5-yl)-3-(4-methyl-3-((2,2,8-trimethyl-2,3-dihydrobenzo[f][1,4]oxazepin-4(5H)-yl)methyl)phenyl) propanoic acid]
pEC50 (Homo sapiens, BEAS-2B, 48 h): 7.00 to 8.00

CC[C@@H]1CN(Cc2cc([C@@H](c3ccc4c(nnn4C)c3C)C(C)(C)C(=O)NS(C)(=O)=O)ccc2C)Cc2cnccc2O1 [Example 205, (S)-3-(1,4-Dimethyl-1H-benzo[d][1,2,3]triazol-5-yl)-3-(3-(((R)-2-ethyl-2,3-dihydropyrido[3,4-f][1,4]oxazepin-4(5H)-yl)methyl)-4-methylphenyl)-2,2-dimethyl-N-(methylsulfonyl)propanamide, Trifluoroacetic Acid Salt]
pEC50 (Homo sapiens, BEAS-2B, 48 h): 6.00 to 7.00

CCn1nnc2c(C)c([C@@H](c3ccc(C)c(CN4Cc5ccccc5OC(C)(C)C4)c3)[C@H](C)C(=O)O)ccc21 [Example 200, (2S,3R)-3-(3-((2,2-Dimethyl-2,3-dihydrobenzo[f][1,4]oxazepin-4(5H)-yl)methyl)-4-methylphenyl)-3-(1-ethyl-4-methyl-1H-benzo[d][1,2,3]triazol-5-yl)-2-methylpropanoic Acid, 2 Trifluoroacetic Acid Salt]
pEC50 (Homo sapiens, BEAS-2B, 48 h): 7.00 to 8.00

CC[C@@H]1CN(Cc2cc([C@@H](c3ccc4c(nnn4C)c3C)C(C)(C)C(=O)O)ccc2C)Cc2cncc(F)c2O1 [Example 28, (S)-3-(1,4-Dimethyl-1H-benzo[d][1,2,3]triazol-5-yl)-3-(3-(((R)-2-ethyl-9-fluoro-2,3-dihydropyrido[3,4-f][1,4]oxazepin-4(5H)-yl)methyl)-4-methylphenyl)-2,2-dimethylpropanoic acid]
pEC50 (Homo sapiens, BEAS-2B, 48 h): > 9.00

Cc1ccc([C@@H](CC(=O)O)c2ccc3c(nnn3C)c2C)cc1CN1Cc2cccc(F)c2OC(C)(C)C1 [Example 177, (R)-3-(1,4-Dimethyl-1H-benzo[d][1,2,3]triazol-5-yl)-3-(3-((9-fluoro-2,2-dimethyl-2,3-dihydrobenzo[f][1,4]oxazepin-4(5H)-yl)methyl)-4-methylphenyl)propanoic acid]
pEC50 (Homo sapiens, BEAS-2B, 48 h): 7.00 to 8.00

CCC1CCN(Cc2nccn2Cc2cc(C(c3ccc4c(nnn4C)c3C)C(C)(C)C(=O)O)ccc2C)CC1 (stereo not shown) [Example 140, 3-(1,4-Dimethyl-1H-benzo[d][1,2,3]triazol-5-yl)-3-(3-((2-((4-ethylpiperidin-1-yl)methyl)-1H-imidazol-1-yl)methyl)-4-methylphenyl)-2,2-dimethylpropanoic acid, formic acid salt]
pEC50 (Homo sapiens, BEAS-2B, 48 h): 5.00 to 6.00

CC[C@@H]1CN(Cc2cc([C@H](CC(=O)O)c3ccc4c(nnn4C)c3C)ccc2C)Cc2cnccc2O1 [Example 50, (S)-3-(1,4-Dimethyl-1H-benzo[d][1,2,3]triazol-5-yl)-3-(3-(((R)-2-ethyl-2,3-dihydropyrido[3,4-f][1,4]oxazepin-4(5H)-yl)methyl)-4-methylphenyl)propanoic acid, formic acid salt]
pEC50 (Homo sapiens, BEAS-2B, 48 h): 7.00 to 8.00

Cc1ncc(C(c2ccc3c(nnn3C)c2C)C(C)(C)C(=O)O)cc1Cn1ccnc1CC1CCCCCC1 (stereo not shown) [Example 214, 3-(5-((2-(Cycloheptylmethyl)-1H-imidazol-1-yl)methyl)-6-methylpyridin-3-yl)-3-(1,4-dimethyl-1H-benzo[d][1,2,3]triazol-5-yl)-2,2-dimethylpropanoic Acid, Trifluoroacetic Acid Salt]
pEC50 (Homo sapiens, BEAS-2B, 48 h): 6.00 to 7.00

CCc1ncc2c(n1)CN(Cc1cc(C(CC(=O)O)c3ccc4c(nnn4C)c3C)ccc1C)CC2 (stereo not shown) [Example 13, Ammonium 3-(1,4-dimethyl-1H-benzo[d][1,2,3]triazol-5-yl)-3-(3-((2-ethyl-5,6-dihydropyrido[3,4-d]pyrimidin-7(8H)-yl)methyl)-4-methylphenyl)propanoate]
pEC50 (Homo sapiens, BEAS-2B, 48 h): 5.00 to 6.00

CC[C@@H]1CN(Cc2cc(C(CCc3cn(CC)nn3)C(C)(C)C(=O)O)ccc2C)Cc2ccncc2O1 (stereo partly drawn) [Example 220, 5-(1-Ethyl-1H-1,2,3-triazol-4-yl)-3-(3-(((R)-2-ethyl-2,3-dihydropyrido[4,3-f][1,4]oxazepin-4(5H)-yl)methyl)-4-methylphenyl)-2,2-dimethylpentanoic Acid, 3.2 Trifluoroacetic Acid Salt]
pEC50 (Homo sapiens, BEAS-2B, 48 h): 7.00 to 8.00

Cc1ccc([C@H](CC(=O)O)c2ccc3c(nnn3C)c2C)cc1CN1Cc2ccc(F)cc2OC(C)(C)C1 [Example 63, (S)-3-(1,4-Dimethyl-1H-benzo[d][1,2,3]triazol-5-yl)-3-(3-((8-fluoro-2,2-dimethyl-2,3-dihydrobenzo[f][1,4]oxazepin-4(5H)-yl)methyl)-4-methylphenyl)propanoic acid]
pEC50 (Homo sapiens, BEAS-2B, 48 h): 7.00 to 8.00

Cc1ccc(C(c2ccc3c(nnn3C)c2C)C2(C(=O)O)CC2)cc1CN1Cc2cnccc2OC(C)(C)C1 (stereo not shown) [Example 211, 1-((1,4-Dimethyl-1H-benzo[d][1,2,3]triazol-5-yl)(3-((2,2-dimethyl-2,3-dihydropyrido[3,4-f][1,4]oxazepin-4(5H)-yl)methyl)-4-methylphenyl)methyl)cyclopropanecarboxylic acid, Trifluoroacetic Acid Salt]
pEC50 (Homo sapiens, BEAS-2B, 48 h): 7.00 to 8.00

Cc1ccc(C(CC(=O)O)c2ccc3c(nnn3C)c2C)cc1CN1Cc2ccc(C#N)cc2OC(C)(C)C1 (single isomer, unassigned) [Example 174]
pEC50: 7.00 to 8.00

Cc1ccc(C(CC(=O)O)c2ccc3c(nnn3C)c2C)cc1CN1Cc2ccccc2OC2(CCC2)C1 (stereo not shown) [Example 244, 3-(3-((3H-Spiro[benzo[f][1,4]oxazepine-2,1′-cyclobutan]-4(5H)-yl)methyl)-4-methylphenyl)-3-(1,4-dimethyl-1H-benzo[d][1,2,3]triazol-5-yl)propanoic Acid]
pEC50 (Homo sapiens, BEAS-2B, 48 h): 7.00 to 8.00

CC[C@@H]1CN(Cc2cc(C(CC(=O)O)c3ccc4c(nnn4C)c3C)ccc2C)Cc2cccc(C)c2O1 (stereo partly drawn) [Example 76, Ammonium 3-(1,4-Dimethyl-1H-benzo[d][1,2,3]triazol-5-yl)-3-(3-(((R)-2-ethyl-9-methyl-2,3-dihydrobenzo[f][1,4]oxazepin-4(5H)-yl)methyl)-4-methylphenyl)propanate]
pEC50 (Homo sapiens, BEAS-2B, 48 h): 6.00 to 7.00

CCn1nnc2c(C)c([C@H](c3ccc(C)c(CN4Cc5ccccc5OC(C)(C)C4)c3)[C@@H](C)C(=O)O)ccc21 [Example 208, (2R,3S)-3-(3-((2,2-Dimethyl-2,3-dihydrobenzo[f][1,4]oxazepin-4(5H)-yl)methyl)-4-methylphenyl)-3-(1-ethyl-4-methyl-1H-benzo[d][1,2,3]triazol-5-yl)-2-methylpropanoic acid, 2 Trifluoroacetic Acid Salt]
pEC50 (Homo sapiens, BEAS-2B, 48 h): 8.00 to 9.00

Cc1ccc(C(c2ccc3c(nnn3C)c2C)C(C)(C)C(=O)O)cc1CN1Cc2ccccc2OC(C)(C)C1 (stereo not shown) [Example 8, 3-(1,4-Dimethyl-1H-benzo[d][1,2,3]triazol-5-yl)-3-(3-((2,2-dimethyl-2,3-dihydrobenzo[f][1,4]oxazepin-4(5H)-yl)methyl)-4-methylphenyl)-2,2-dimethylpropanoic Acid, Formic Acid Salt]
pEC50 (Homo sapiens, BEAS-2B, 48 h): 8.00 to 9.00

Cc1ccc([C@H](CC(=O)O)c2ccc3c(nnn3C)c2C)cc1CN1CCCC(n2cccn2)C1 (single isomer, unassigned) [compound 159]
pEC50 (Homo sapiens, BEAS-2B, 48 h): 5.00 to 6.00

— patent US10604509B2, “Nrf2 regulators” (GlaxoSmithKline Intellectual Property Development Limited, priority 2015, dated 2020)
